Measurements published in article PMC4383003, “Transfer hydrogenation catalysis in cells as a new approach to anticancer drug design” (Nature Communications, 2015).

Tests used:
[1] = tested on: A2780 human ovarian cancer cells; assay: In vitro growth inhibition assay (SRB), A2780; format: cell-based; conditions: A2780, 24 h drug exposure, no formate
Method: A2780 human ovarian carcinoma and MRC5 human fetal lung fibroblasts were obtained from the European Collection of Cell Cultures. Both cell lines were grown in Roswell Park Memorial Institute medium (RPMI-1640) supplemented with 10% of fetal calf serum, 1% of 2 mM glutamine and 1% penicillin/streptomycin. All cells were grown as adherent monolayers at 310 K in a 5% CO2-humidified atmosphere and passaged at ca. 70–80% confluency.
The antiproliferative activity of complexes 1–8 was determined in A2780 ovarian cancer cells and MRC5 fibroblasts. Briefly, 96-well plates were used to seed 5,000 cells per well. The plates were left to pre-incubate with drug-free medium at 310 K for 48 h before adding different concentrations of the compounds to be tested. A drug exposure period of 24 h was allowed. After this, supernatants were removed by suction and each well was washed with PBS. A further 72 h were allowed for the cells to recover in drug-free medium at 310 K. The sulforhodamine B (SRB) assay was used to determine cell viability. IC50 values, as the concentration that causes 50% cell death, were determined as duplicates of triplicates in two independent sets of experiments and their s.d. were calculated.

[2] = tested on: A2780 ovarian cancer cells; assay: IC50 of complex 2 on co-administration with formate; format: cell-based, human; conditions: A2780, formate 0 mM
Method: The antiproliferative activity towards A2780 ovarian cancer cells of complex 2 when co-administered with 2 mM sodium formate was determined. These experiments were performed as described above, using a fixed concentration of formate and variable concentrations of the Ru complex. The SRB assay was used to determine cell viability. IC50 values were determined as duplicates of triplicates in two independent sets of experiments and their s.d. were calculated.
Supplementary Table 8: Antiproliferative activity of complex 2 in A2780 ovarian cancer cells when co-administered with different concentrations of sodium formate (0, 0.5, 1 and 2 mM) and amount of Ru accumulated by the cells. All the experiments were performed as duplicates of triplicates in independent experiments and the error bars were calculated as the standard deviation from the mean.
Formate concentration (mM)

[3] = pKa* of aqua adducts of the complexes; format: physicochemical; conditions: pKa value determined in deuterated solvent
From the text: Table 1 pKa* values for aqua adducts of catalysts 1–4 (and 8 for comparison) and turnover frequencies for transfer hydrogenation of NAD^+ using formate. | column: pKa*

A2780 cells = assay: Induction of apoptosis (Annexin V-FITC/PI flow cytometry); format: cell-based, human; conditions: A2780, complex 2 and 2 mM sodium formate, 24 h
Method: Flow cytometry analysis of apoptosis in A2780 cells caused by exposure to complex 2 and sodium formate were carried out using the Annexin V-FITC Apoptosis Detection Kit (Sigma Aldrich) according to the manufacturer’s instructions. […] Cells were harvested using trypsin and stained using PI/Annexin V-FITC. After staining, cell pellets were analysed in a Becton Dickinson FACScan Flow Cytometer. For positive-apoptosis controls, A2780 cells were exposed for 2 h to staurosporine (1 μg ml^−1). Cells for apoptosis studies were used with no previous fixing procedure as to avoid nonspecific binding of the annexin V-FITC conjugate.

[4] = tested on: NAD^+/NADH ratio in A2780 cells; assay: NAD+/NADH determination in cells; format: cell-based, human
Method: Experiments to determine the NAD^+/NADH ratio in A2780 ovarian cancer cells exposed to complex 2 were carried out using the NAD^+/NADH assay kit from Abcam (ab65348) according to the manufacturer’s instructions. Briefly, A2780 cells were seeded in six-well plates at a density of 1.0 × 10^6 cells per well. […] These concentrations of sodium formate were also used on their own as a second set of negative controls. Drug exposure was allowed for 24 h, after which all supernatants were removed by suction and wells were washed with PBS. Cells were treated with trypsin, detached and counted before being pelleted by centrifugation. Cell pellets were extracted using the NAD/NADH extraction buffer and filtered using a 10-kDa-molecular weight cutoff filter. Samples were split into two, the first half was used to determine total NADt (NAD+NADH), and the second half to determine NADH after heating the samples at 333 K for 30 min. The absorbance at 450 nm was normalized against the protein content in each sample determined using the Bradford assay.
Experiments to determine the time dependence of the NAD/NADH ratio in A2780 ovarian cancer cells exposed to complex 2 were carried out using the NAD^+/NADH assay kit as described above with the following modifications.

[5] = tested on: A2780 ovarian cancer cells; assay: Ruthenium accumulation in cancer cells (ICP-MS); format: cell-based, human
Method: Briefly, 1.5 × 10^6 cells per well were seeded on a six-well plate. […] After this time, cells were washed, treated with trypsin-EDTA, counted and cell pellets were collected. Each pellet was digested overnight in concentrated nitric acid (73%) at 353 K; the resulting solutions were diluted using double-distilled water to give a final concentration of 5% HNO3 and the amount of Ru taken up by the cells was determined by ICP–MS. […]
Supplementary Table 3: Antiproliferative activity of complexes 1-8 in A2780 ovarian cancer cells and their cellular accumulation (expressed as ng Ru per million cells).
The latter experiments were carried out using equipotent concentrations of the […]
experiments were performed as duplicates of triplicates in independent experiments and the error bars were calculated as the standard deviation from the mean. […]

Cc1ccc(C(C)C)cc1.Cc1ccc(S(=O)(=O)[N-]CCN)cc1.[Cl-].[Ru+2] [Complex 2, [(p-cym)Ru(TsEn)Cl]]
IC50 [1]: 13.6 ± 0.6 µM | IC50 [2]: 13.6 ± 0.6 µM | pKa* [3]: 9.78±0.06 | induction of apoptosis (A2780 cells): no population of cells in either of these two stages of apoptosis was detected | apparent TOF (TOFap) for conversion of NAD+ to NADH in cells ([4]; A2780, 4.5 μM complex 2 and 2 mM sodium formate, 0-24 h): 0.19 ± 0.01 h⁻¹ | NAD+/NADH ratio ([4]; A2780, complex 2, 24 h, 2 mM formate): 1.1 | NAD+/NADH ratio ([4]; A2780, complex 2, 24 h, no formate): 4.5 | NAD+/NADH ratio ([4]; A2780, complex 2 and 2 mM sodium formate, after 12 h): 0.74 | NAD+/NADH ratio ([4]; A2780, complex 2 and 2 mM sodium formate, after 24 h): 0.98 | NAD+/NADH ratio ([4]; A2780, complex 2 and 2 mM sodium formate, t=4 h): 0.83 | Cell Ru ([5]; A2780, 1/3 x IC50, 24 h drug exposure, no recovery time): 0.15 ± 0.04 ng x 106 cells | Cell accum. ([5]; A2780, 24 h, 1/3 x IC50): 0.15 ng Ru/10^6 cells | dependence of cellular accumulation of ruthenium on amount of formate added ([5]; A2780, complex 2 4.5 μM): no significant dependence | Cell Ru ([5]; A2780, complex 2, formate 0 mM): 0.15 ± 0.03 ng x 106 cells | Cell Ru ([5]; A2780, complex 2, formate 0.5 mM): 0.145 ± 0.009 ng x 106 cells | Cell Ru ([5]; A2780, complex 2, formate 1 mM): 0.129 ± 0.005 ng x 106 cells | Cell Ru ([5]; A2780, complex 2, formate 2 mM): 0.13 ± 0.02 ng x 106 cells
